Patent US11731976B2, “3-(ethoxydifluoromethyl)-6-(5-fluoro-6-(2,2,2-trifluoroethoxy)pyridin-3-yl)-[1,2,4]triazolo[4,3-a]pyridine as an ion channel modulator” (Praxis Precision Medicines, Inc., priority 2018, dated 2023)

Each compound was assayed against T1, human NaV1.6 (hNaV1.6) (Homo sapiens, UniProt Q9UQD0) (assay: Modulation of late sodium current (INaL), PatchXpress electrophysiology, HEK-293 cells expressing hNaV1.6). Conditions: HEK293, late current evoked by 300 nM ATX-II, read-out: NaV 1.6 Assay Data: percent inhibition of INaL at hNaV1.6.
T1 construct: expressed in transfected cells; host or cells: HEK-293
T1 sequence (Q9UQD0 whole entry): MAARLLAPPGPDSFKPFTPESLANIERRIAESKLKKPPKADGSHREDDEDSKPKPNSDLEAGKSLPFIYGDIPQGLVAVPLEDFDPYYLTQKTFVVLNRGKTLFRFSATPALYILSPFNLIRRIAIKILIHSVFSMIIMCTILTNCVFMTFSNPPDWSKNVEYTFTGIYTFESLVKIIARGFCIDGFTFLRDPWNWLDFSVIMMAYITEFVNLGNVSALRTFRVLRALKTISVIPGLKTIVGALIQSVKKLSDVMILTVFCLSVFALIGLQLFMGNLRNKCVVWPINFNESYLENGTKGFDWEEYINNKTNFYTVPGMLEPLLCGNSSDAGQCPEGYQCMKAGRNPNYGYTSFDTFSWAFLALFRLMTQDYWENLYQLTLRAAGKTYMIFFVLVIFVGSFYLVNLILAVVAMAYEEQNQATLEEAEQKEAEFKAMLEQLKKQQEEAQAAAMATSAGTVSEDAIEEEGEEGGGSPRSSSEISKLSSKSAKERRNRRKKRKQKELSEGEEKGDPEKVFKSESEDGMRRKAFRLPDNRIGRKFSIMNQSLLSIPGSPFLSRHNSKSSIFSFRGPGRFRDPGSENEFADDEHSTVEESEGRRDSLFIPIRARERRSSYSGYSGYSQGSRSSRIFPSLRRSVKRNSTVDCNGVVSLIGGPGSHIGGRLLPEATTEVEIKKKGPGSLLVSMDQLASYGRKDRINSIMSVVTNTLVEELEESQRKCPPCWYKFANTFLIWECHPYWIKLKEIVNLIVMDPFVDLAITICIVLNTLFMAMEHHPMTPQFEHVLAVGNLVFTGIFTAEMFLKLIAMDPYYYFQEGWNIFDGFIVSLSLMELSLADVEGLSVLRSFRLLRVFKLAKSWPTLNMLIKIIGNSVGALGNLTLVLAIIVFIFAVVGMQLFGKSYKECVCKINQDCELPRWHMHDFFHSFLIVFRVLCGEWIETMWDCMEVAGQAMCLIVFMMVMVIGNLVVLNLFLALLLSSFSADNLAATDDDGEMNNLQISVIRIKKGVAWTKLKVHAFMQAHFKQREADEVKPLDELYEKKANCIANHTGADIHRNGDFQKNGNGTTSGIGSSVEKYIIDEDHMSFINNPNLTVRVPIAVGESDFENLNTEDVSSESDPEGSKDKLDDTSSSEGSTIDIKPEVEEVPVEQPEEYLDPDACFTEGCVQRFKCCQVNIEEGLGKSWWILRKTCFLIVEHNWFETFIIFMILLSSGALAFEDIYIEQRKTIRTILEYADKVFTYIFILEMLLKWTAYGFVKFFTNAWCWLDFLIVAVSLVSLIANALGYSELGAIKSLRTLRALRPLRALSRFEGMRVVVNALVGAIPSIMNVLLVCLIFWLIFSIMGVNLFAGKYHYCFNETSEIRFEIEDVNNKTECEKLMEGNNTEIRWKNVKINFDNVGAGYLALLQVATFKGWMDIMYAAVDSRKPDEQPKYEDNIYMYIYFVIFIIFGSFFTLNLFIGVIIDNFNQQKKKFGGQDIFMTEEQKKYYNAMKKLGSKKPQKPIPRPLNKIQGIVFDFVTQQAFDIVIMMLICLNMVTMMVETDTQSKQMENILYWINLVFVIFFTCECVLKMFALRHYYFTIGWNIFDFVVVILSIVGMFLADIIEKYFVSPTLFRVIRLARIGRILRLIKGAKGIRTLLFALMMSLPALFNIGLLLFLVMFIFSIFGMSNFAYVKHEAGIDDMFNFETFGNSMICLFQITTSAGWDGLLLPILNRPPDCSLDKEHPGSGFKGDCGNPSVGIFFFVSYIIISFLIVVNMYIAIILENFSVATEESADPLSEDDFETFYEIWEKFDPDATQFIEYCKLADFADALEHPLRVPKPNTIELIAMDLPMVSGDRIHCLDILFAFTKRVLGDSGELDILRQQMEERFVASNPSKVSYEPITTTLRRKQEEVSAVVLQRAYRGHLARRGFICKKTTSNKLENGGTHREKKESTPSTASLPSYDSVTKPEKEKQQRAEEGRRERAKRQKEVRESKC
Assay type: cell-based
Procedure: Functional characterization of exemplary compounds to modulate INaL expressed by the NaV1.6 voltage-gated sodium channel was accomplished using the PatchXpress™ high throughput electrophysiology platform (Molecular Devices, Sunnyvale, Calif.). HEK-293 cells expressing recombinant, human NaV1.6 (hNaV1.6) were grown in DMEM/high-glucose Dulbecco's modified, 10% FBS, 2 mM sodium pyruvate, 10 mM HEPES and 400 μg/mL G418. Cells were grown to 50%-80% confluency prior to harvesting. Trypsinized cells were washed, allowed to recover for 1 hour and then resuspended in extracellular recording solution at a concentration of 1×10^6 cells/ml. The onboard liquid handling facility of the PatchXpress was used for dispensing cells and applying test compounds. NaV late currents were evoked by the application of 300 nM ATX-II. INaL was evoked by depolarizing pulses to 0 mV for 200 ms from a non-inactivating holding potential (e.g., −120 mV) at a frequency of 0.1 Hz. INaL amplitude and stability were determined by analyzing the mean current amplitude over the final 20 ms of the test pulse. Following steady state block with exemplary compounds (e.g., as described herein), a Na+ free solution containing an impermeant cation (e.g., Choline or NDMG) was added to confirm the identify of the sodium current. Percent steady-state inhibition of INaL was calculated as: [(INaL_compound)/(INaL_control)]*100, where INaL_compound and INaL_control represent INaL recorded in the presence or absence of compound, respectively.

inhibition at 1 µM | SMILES
> 70% | COC(F)(F)c1nnc2ccc(-c3cnc(OCC(F)(F)F)c(F)c3)cn12 [Compound 30, 3-[difluoro(methoxy)methyl]-6-[5-fluoro-6-(2,2,2-trifluoroethoxy)-3-pyridyl]-[1,2,4]triazolo[4,3-a]pyridine]
> 70% | C[C@@H](Oc1ncc(-c2ccc3nnc(C(F)(F)OC4CC4)n3c2)cc1F)C(F)(F)F [Compound 36, 3-[cyclopropoxy(difluoro)methyl]-6-[5-fluoro-6-[(1R)-2,2,2-trifluoro-1-methyl-ethoxy]-3-pyridyl]-[1,2,4]triazolo[4,3-a]pyridine]
> 70% | Fc1cc(-c2cn3c(C(F)(F)OCC4CC4)nnc3cn2)cnc1OCC(F)(F)F [Compound 9, 3-[cyclopropylmethoxy(difluoro)methyl]-6-[5-fluoro-6-(2,2,2-trifluoroethoxy)-3-pyridyl]-[1,2,4]triazolo[4,3-a]pyrazine]
> 70% | COC(F)(F)c1nnc2ccc(-c3cnc(O[C@H](C)C(F)(F)F)c(F)c3)cn12 [Compound 8, 3-[difluoro(methoxy)methyl]-6-[5-fluoro-6-[(1R)-2,2,2-trifluoro-1-methyl-ethoxy]-3-pyridyl]-[1,2,4]triazolo[4,3-a]pyridine]
> 70% | CC(C)OC(F)(F)c1nnc2ccc(-c3cnc(O[C@H](C)C(F)(F)F)c(F)c3)cn12 [Compound 21, 3-[difluoro(isopropoxy)methyl]-6-[5-fluoro-6-[(1R)-2,2,2-trifluoro-1-methyl-ethoxy]-3-pyridyl]-[1,2,4]triazolo[4,3-a]pyridine]
> 70% | CCOC(F)(F)c1nnc2ccc(-c3cnc(O[C@@H](C)C(F)(F)F)c(F)c3)cn12 [Compound 32, 3-[ethoxy(difluoro)methyl]-6-[5-fluoro-6-[(1S)-2,2,2-trifluoro-1-methyl-ethoxy]-3-pyridyl]-[1,2,4]triazolo[4,3-a]pyridine]
30 to 70% | COC(F)(F)c1nnc2cnc(-c3cnc(O[C@H](C)C(F)(F)F)c(F)c3)c(C)n12 [Compound 60, 3-[difluoro(methoxy)methyl]-6-[5-fluoro-6-[(1R)-2,2,2-trifluoro-1-methyl-ethoxy]-3-pyridyl]-5-methyl-[1,2,4]triazolo[4,3-a]pyrazine]
> 70% | CCOC(F)(F)c1nnc2ccc(-c3cnc(O[C@@H](C)C(F)(F)F)c(F)c3)nn12 [Compound 41, 3-[ethoxy(difluoro)methyl]-6-[5-fluoro-6-[(1S)-2,2,2-trifluoro-1-methyl-ethoxy]-3-pyridyl]-[1,2,4]triazolo[4,3-b]pyridazine]
> 70% | C[C@@H](Oc1ncc(-c2cn3c(C(F)(F)OC4CC4)nnc3cn2)cc1F)C(F)(F)F [Compound 51, 3-[cyclopropoxy(difluoro)methyl]-6-[5-fluoro-6-[(1R)-2,2,2-trifluoro-1-methyl-ethoxy]-3-pyridyl]-[1,2,4]triazolo[4,3-a]pyrazine]
> 70% | CCOC(F)(F)c1nnc2cnc(-c3cnc(O[C@@H](C)C(F)(F)F)c(F)c3)c(C)n12 [Compound 67, 3-[ethoxy(difluoro)methyl]-6-[5-fluoro-6-[(1S)-2,2,2-trifluoro-1-methyl-ethoxy]-3-pyridyl]-5-methyl-[1,2,4]triazolo[4,3-a]pyrazine]
> 70% | Fc1cc(-c2ccc3nnc(C(F)(F)OCC4CC4)n3n2)cnc1OCC(F)(F)F [Compound 14, 3-[cyclopropylmethoxy(difluoro)methyl]-6-[5-fluoro-6-(2,2,2-trifluoroethoxy)-3-pyridyl]-[1,2,4]triazolo[4,3-b]pyridazine]
> 70% | C[C@H](Oc1ncc(-c2ccc3nnc(C(F)(F)OCC4CC4)n3c2)cc1F)C(F)(F)F [Compound 19, 3-[cyclopropylmethoxy(difluoro)methyl]-6-[5-fluoro-6-[(1S)-2,2,2-trifluoro-1-methyl-ethoxy]-3-pyridyl]-[1,2,4]triazolo[4,3-a]pyridine]
> 70% | C[C@H](Oc1ncc(-c2cn3c(C(F)(F)OC4CC4)nnc3cn2)cc1F)C(F)(F)F [Compound 63, 3-[cyclopropoxy(difluoro)methyl]-6-[5-fluoro-6-[(1S)-2,2,2-trifluoro-1-methyl-ethoxy]-3-pyridyl]-[1,2,4]triazolo[4,3-a]pyrazine]
> 70% | C[C@@H](Oc1ncc(-c2ccc3nnc(C(F)(F)OCC4CC4)n3c2)cc1F)C(F)(F)F [Compound 25, 3-[cyclopropylmethoxy(difluoro)methyl]-6-[5-fluoro-6-[(1R)-2,2,2-trifluoro-1-methyl-ethoxy]-3-pyridyl]-[1,2,4]triazolo[4,3-a]pyridine]
> 70% | CCOC(F)(F)c1nnc2ccc(-c3cnc(O[C@H](C)C(F)(F)F)c(F)c3)cn12 [Compound 34, 3-[ethoxy(difluoro)methyl]-6-[5-fluoro-6-[(1R)-2,2,2-trifluoro-1-methyl-ethoxy]-3-pyridyl]-[1,2,4]triazolo[4,3-a]pyridine]
> 70% | CCOC(F)(F)c1nnc2cnc(-c3ccc(OCC(F)(F)F)nc3)cn12 [Compound 81, 3-(ethoxydifluoromethyl)-6-(6-(2,2,2-trifluoroethoxy)pyridin-3-yl)-[1,2,4]triazolo[4,3-a]pyrazine]

SMILES | inhibition at 1 µM
FC(F)(F)COc1ccc(-c2cn3c(C(F)(F)OC4CC4)nnc3cn2)cn1 [Compound 74, 3-(cyclopropoxydifluoromethyl)-6-(6-(2,2,2-trifluoroethoxy)pyridin-3-yl)-[1,2,4]triazolo[4,3-a]pyrazine] | > 70%
COC(F)(F)c1nnc2cnc(-c3ccc(OC4(C(F)(F)F)CCC4)nc3)cn12 [Compound 57] | > 70%
COC(F)(F)c1nnc2ccc(-c3cnc(OC4(C(F)(F)F)CCC4)c(F)c3)cn12 [Compound 18, 3-[difluoro(methoxy)methyl]-6-[5-fluoro-6-[1-(trifluoromethyl)cyclobutoxy]-3-pyridyl]-[1,2,4]triazolo[4,3-a]pyridine] | > 70%
COCc1nnc2ccc(-c3cnc(O[C@H](C)C(F)(F)F)c(F)c3)cn12 [Compound 40, 6-[5-fluoro-6-[(1R)-2,2,2-trifluoro-1-methyl-ethoxy]-3-pyridyl]-3-(methoxymethyl)-[1,2,4]triazolo[4,3-a]pyridine] | < 30%
COC(F)(F)c1nnc2cc(C)c(-c3cnc(O[C@@H](C)C(F)(F)F)c(F)c3)nn12 [Compound 68, 3-[difluoro(methoxy)methyl]-6-[5-fluoro-6-[(1S)-2,2,2-trifluoro-1-methyl-ethoxy]-3-pyridyl]-7-methyl-[1,2,4]triazolo[4,3-b]pyridazine] | > 70%
COCc1nnc2ccc(-c3cnc(OC(C)(C)C(F)(F)F)c(F)c3)cn12 [Compound 28, 6-[5-fluoro-6-(2,2,2-trifluoro-1,1-dimethyl-ethoxy)-3-pyridyl]-3-(methoxymethyl)-[1,2,4]triazolo[4,3-a]pyridine] | > 70%
CC(C)COC(F)(F)c1nnc2ccc(-c3cnc(O[C@@H](C)C(F)(F)F)c(F)c3)nn12 [Compound 47, 3-[difluoro(isobutoxy)methyl]-6-[5-fluoro-6-[(1S)-2,2,2-trifluoro-1-methyl-ethoxy]-3-pyridyl]-[1,2,4]triazolo[4,3-b]pyridazine] | > 70%
COC(F)(F)c1nnc2cnc(-c3cnc(OC4CC(F)(F)C4)c(F)c3)cn12 [Compound 76, 3-(difluoro(methoxy)methyl)-6-(6-(3,3-difluorocyclobutoxy)-5-fluoropyridin-3-yl)-[1,2,4]triazolo[4,3-a]pyrazine] | > 70%
CCOC(F)(F)c1nnc2cnc(-c3ccc(O[C@H](C)C(F)(F)F)nc3)cn12 [Compound 86, (R)-3-(ethoxydifluoromethyl)-6-(6-((1,1,1-trifluoropropan-2-yl)oxy)pyridin-3-yl)-[1,2,4]triazolo[4,3-a]pyrazine] | > 70%
CC(C)COC(F)(F)c1nnc2cnc(-c3cnc(O[C@@H](C)C(F)(F)F)c(F)c3)cn12 [Compound 45, 3-[difluoro(isobutoxy)methyl]-6-[5-fluoro-6-[(1S)-2,2,2-trifluoro-1-methyl-ethoxy]-3-pyridyl]-[1,2,4]triazolo[4,3-a]pyrazine] | > 70%
CCOC(F)(F)c1nnc2ccc(-c3cnc(OC4CC(F)(F)C4)c(F)c3)cn12 [Compound 85, 6-(6-(3,3-difluorocyclobutoxy)-5-fluoropyridin-3-yl)-3-(ethoxydifluoromethyl)-[1,2,4]triazolo[4,3-a]pyridine] | > 70%
COCc1nnc2cc(C)c(-c3cnc(OC(C)(C)C(F)(F)F)c(F)c3)nn12 [Compound 69, 6-[5-fluoro-6-(2,2,2-trifluoro-1,1-dimethyl-ethoxy)-3-pyridyl]-3-(methoxymethyl)-7-methyl-[1,2,4]triazolo[4,3-b]pyridazine] | 30 to 70%
COCc1nnc2ccc(-c3cnc(O[C@@H](C)C(F)(F)F)c(F)c3)cn12 [Compound 43, 6-[5-fluoro-6-[(1S)-2,2,2-trifluoro-1-methyl-ethoxy]-3-pyridyl]-3-(methoxymethyl)-[1,2,4]triazolo[4,3-a]pyridine] | 30 to 70%
